A short description of data set [1]: Pharmacokinetic study in SD rats after oral administration of TWMM (UPLC-QQQ-MS of plasma). The note with it: oral TWMM 9.6 g/kg. The data set is classed as in vivo, Sprague-Dawley (SD) rats. How it is done: Chromatographic separation was performed using an ACQUITY UPLC H-Class system equipped with a 1.8 μm HSS T3 analytical column (100 mm × 2.1 i.d., Waters Corporation, Milford, USA). […] ESI source was set to negative ionisation mode while the analysis was performed using multiple reaction monitorin. Ion spray voltage (3000 V), capillary temperature (450 °C), and the source parameters of the nine compounds are shown in Table 2.
The data obtained from the UPLC/Q-Orbitrap MS was imported into Xcalibur 4.0 software for analysis. Furthermore, the constituents acquired using GCMS-QP 2010 were profiled by comparison using the National Institute of Standards and Technology (NIST) database. The pharmacokinetic data were processed through MassLynx 4.1, and DAS 2.0 software was used to calculate the pharmacokinetic parameters according to the compartment model.
Six male SD rats (average weight: 220 ± 10 g) were acquired from Beijing Vital-River Laboratory Animal Technology Co., Ltd. All rats were acclimatized to an environmentally controlled laboratory for a week. Following this period, the rats were exposed to fasting conditions for 12 h but were allowed free access to water before the experiment. The rats were orally administered TWMM at a dose of 9.6 g/kg. Blood samples (300 µL) were collected into heparinized centrifuge tubes from the fossa orbitalis at pre-dose and 0.03, 0.08, 0.17, 0.25, 0.5, 1, 2, 4, 8, 12, 24, and 36 h intervals. The samples were immediately centrifuged at 6000 g for 10 min at 4 °C and the supernatants were transferred to clean centrifuge tubes.
Each 100 µL plasma sample was mixed with 20 µL of methanol, 20 µL of IS (5 µg/mL), and 600 µL acetonitrile. The mixtures were centrifuged at 15,000 g for 10 min at 4 °C after being vortexed for 3 min. The obtained supernatants were transferred to clean 1.5 mL centrifuge tubes, followed by evaporation under a milt nitrogen stream. Next, the obtained residues were individually redissolved in 100 µL of methanol and centrifuged at 15,000 g for 10 min at 4 °C after vortexed for 3 min. Lastly, 10 µL of individual supernatant was injected for analysis.

Data set [2] in a line: Stability of QC samples of 8 compounds in rat plasma (25 °C 4 h, autosampler 12 h, three freeze-thaw cycles, −80 °C 7 d). The data set is classed as in vitro ADME. How it is done: The calibration curves were assessed at eight concentration levels using the correlation coefficient (r). The lower limit of quantification (LLOQ) could fulfil the analytical requirements and achieved reliable accuracy and precision with a signal-to-noise ratio (S/N) ≥ 10. To determine intra- and inter-day precision and accuracy, six replicate quality control (QC) samples at three concentrations were prepared. Inter- and intra-day precision was evaluated by determining relative standard deviation (RSD) values, while accuracy was expressed in terms of the relative error (RE). The extraction recoveries were determined using three concentration levels and calculated by comparing the peak area of extracted samples with post-extracted spiked samples. Subsequently, matrix effects were assessed using the peak area of post-extracted spiked samples contrasted with QC samples at the three concentration levels. The stability test of QC samples at the three concentration levels was as follows: storage at 25 °C for 4 h, storage in an autosampler for 12 h, freeze-thaw cycle for three times, and storage at −80 °C for 7 d.
The stability tests were carried out under three freeze-thaw cycles, at 25 °C for 4 h, in an autosampler for 12 h, and at −80 °C for 7 d.

Where [3] appears, read: QC concentration 1 ng/mL, autosampler 12 h, 4 °C, rat plasma, n = 3.
Where [4] appears, read: QC concentration 1 ng/mL, long term 7 day, –80 °C, rat plasma, n = 3.
[5] abbreviates: QC concentration 1 ng/mL, room temperature 25 °C, rat plasma, n = 3.
Where [6] appears, read: QC concentration 1 ng/mL, three freeze/thaw cycles, rat plasma, n = 3.
Setting [7] is: QC concentration 10 ng/mL, autosampler 12 h, 4 °C, rat plasma, n = 3.
Setting [8] is: QC concentration 10 ng/mL, long term 7 day, –80 °C, rat plasma, n = 3.
Where [9] appears, read: QC concentration 10 ng/mL, room temperature 25 °C, rat plasma, n = 3.
Setting [10] is: QC concentration 10 ng/mL, three freeze/thaw cycles, rat plasma, n = 3.
Where [11] appears, read: QC concentration 200 ng/mL, autosampler 12 h, 4 °C, rat plasma, n = 3.
The mark [12] stands for this setting: QC concentration 200 ng/mL, long term 7 day, –80 °C, rat plasma, n = 3.
Setting [13] is: QC concentration 200 ng/mL, room temperature 25 °C, rat plasma, n = 3.
[14] abbreviates: QC concentration 200 ng/mL, three freeze/thaw cycles, rat plasma, n = 3.

Like-named read-outs stand apart in the source and are kept apart here.

Broadly, the half-life is how long it takes for the measured level to halve. A high value points to slow decline. What is called Cmax is the peak of the concentration-time curve. Broadly, the Tmax is the time from dosing to the highest level. Take `O=C(/C=C/c1ccc(O)c(O)c1)O[C@@H]1C[C@](O)(C(=O)O)C[C@@H](O)[C@H]1O` [Chlorogenic acid]: the half-life in data set [1] (male, Sprague-Dawley, rat, n = 6) is 2.71 ± 0.11 h. Also, in data set [1] (male, Sprague-Dawley, rat, n = 6, read-out: AUC (0–36)), the AUC(0-t) is 34 ± 4.55 ng·h/mL. In data set [1] (male, Sprague-Dawley, rat, n = 6, read-out: Cmax), the Cmax was 16.1 ± 4.17 ng/mL. Besides, the MRT last in data set [1] (male, Sprague-Dawley, rat, n = 6, read-out: MRT (0–36)) came to 4.97 ± 0.71 h. Besides, the MRT inf in data set [1] (male, Sprague-Dawley, rat, n = 6, read-out: MRT (0–∞)) worked out at 4.97 ± 0.71 h. Besides, in data set [1] (male, Sprague-Dawley, rat, read-out: areas under the concentration-time curve (AUC0–∞)), the AUC(0-inf) was 34 ± 4.55 ng·h/mL. Also, in data set [1] (male, Sprague-Dawley, rat, po, 9.6 g/kg, n = 6, read-out: Tmax), the Tmax was ≤ 1 h. In addition, the t1/2 entry in data set [1] (n = 6) was “rapid elimination”. Further, the “Stability in rat plasma, Three freeze/thaw cycles, Measured” value turned out to be 1.1 ± 0.1 ng/mL in data set [2] (rat, plasma, 1 ng/mL); 9.8 ± 0.8 ng/mL in data set [2] (rat, plasma, 10 ng/mL); 212.6 ± 19.4 ng/mL in data set [2] (rat, plasma, 200 ng/mL). Besides, the “Stability in rat plasma, Room temperature (4 h, 25 °C), Measured” value (shortened to “Stability … (4 h, 25 °C), Measured”) in data set [2] (rat, plasma, 1 ng/mL) came to 1.2 ± 0.1 ng/mL; in data set [2] (rat, plasma, 10 ng/mL) it was 9.2 ± 0.6 ng/mL; in data set [2] (rat, plasma, 200 ng/mL), 187.6 ± 4.2 ng/mL. Besides, the “Stability in rat plasma, Autosampler (12 h, 4 °C), Measured” value (“Stability in rat plasma, Autosampler” below) in data set [2] (rat, plasma, 12 h, 1 ng/mL) worked out at 0.9 ± 0.1 ng/mL; in data set [2] (rat, plasma, 12 h, 10 ng/mL), 9.1 ± 1.1 ng/mL; in data set [2] (rat, plasma, 12 h, 200 ng/mL) it was 200.0 ± 14.0 ng/mL. Further, the “Stability in rat plasma, Long term (7 day, –80 °C), Measured” value (from here on “Stability in rat plasma, Long term”) is given as 1.0 ± 0.1 ng/mL in data set [2] (rat, plasma, 168 h, 1 ng/mL); 10.3 ± 0.5 ng/mL in data set [2] (rat, plasma, 168 h, 10 ng/mL); 214.4 ± 10.5 ng/mL in data set [2] (rat, plasma, 168 h, 200 ng/mL).

In the case of Jaspolyside, in data set [1], the areas under the concentration-time curve (AUC0–∞) stood at 53.4 ± 32.2 ng·h/mL. Moreover, in data set [1] (n = 6), the “AUC (0–36)” value is 46.59 ± 9.58 ng·h/mL, the “AUC (0–∞)” value was determined as 53.37 ± 32.17 ng·h/mL, the Cmax was 14.25 ± 3.67 ng/mL and the “MRT (0–36)” value came out at 11.42 ± 1.29 h. Moreover, in data set [1] (n = 6), the “MRT (0–∞)” value is 15.62 ± 10.83 h, the Tmax amounted to 0.38 ± 0.31 h and the t1/2 stood at 29.15 ± 12.65 h. Besides, the Tmax in data set [1] (n = 6, listed as jaspolyside) is on record as ≤ 1 h.

Take `COc1ccc(-c2cc(=O)c3c(O)cc(O[C@@H]4O[C@H](CO[C@@H]5O[C@@H](C)[C@H](O)[C@@H](O)[C@H]5O)[C@@H](O)[C@H](O)[C@H]4O)cc3o2)cc1` [Linarin]: the “AUC (0–36)” value in data set [1] (n = 6) came to 12.04 ± 4.72 ng·h/mL. For the same compound, the “AUC (0–∞)” value in data set [1] (n = 6) was 12.04 ± 4.72 ng·h/mL. For the same compound, in data set [1] (n = 6), the Cmax came out at 12.78 ± 8.82 ng/mL. Moreover, the “MRT (0–36)” value in data set [1] (n = 6) was 4.26 ± 2.67 h. Also, the “MRT (0–∞)” value in data set [1] (n = 6) was determined as 4.26 ± 2.68 h. Besides, the Tmax in data set [1] (n = 6) is on record as 0.16 ± 0.10 h; in data set [1] (n = 6, listed as linarin) it was ≤ 1 h. The t1/2 is on record as 2.81 ± 0.21 h in data set [1] (n = 6) and “rapid elimination” in data set [1] (n = 6, listed as linarin). The “Stability in rat plasma, Autosampler” value in data set [2] (setting [3]) worked out at 1.1 ± 0.1 ng/mL; in data set [2] (setting [7]), 10.2 ± 0.6 ng/mL; in data set [2] (setting [11]) it was 208.5 ± 2.0 ng/mL. In addition, the figures for the “Stability in rat plasma, Long term” value in data set [2] (setting [4]), in data set [2] (setting [8]) and in data set [2] (setting [12]) were 1.1 ± 0.1 ng/mL, 10.2 ± 0.4 ng/mL and 221.0 ± 11.2 ng/mL, respectively. The “Stability … (4 h, 25 °C), Measured” value in data set [2] (setting [5]) turned out to be 1.0 ± 0.1 ng/mL; in data set [2] (setting [9]), 11.9 ± 0.1 ng/mL; in data set [2] (setting [13]), 223.3 ± 5.0 ng/mL. Besides, the results for the “Stability in rat plasma, Three freeze/thaw cycles, Measured” value in data set [2] (setting [6]), in data set [2] (setting [10]) and in data set [2] (setting [14]) were 1.0 ± 0.0 ng/mL, 11.6 ± 0.5 ng/mL and 219.4 ± 13.8 ng/mL, respectively.

`CC=C1[C@H](O[C@@H]2O[C@H](CO)[C@@H](O)[C@H](O)[C@H]2O)OC=C(C(=O)OC)[C@H]1CC(=O)OC[C@H]1O[C@@H](OCCc2ccc(O)cc2)[C@H](O)[C@@H](O)[C@@H]1O` (stereo in doubt) [Specnuezhenide] showed an areas under the concentration-time curve (AUC0–∞) in data set [1] of 57.2 ± 30.2 ng·h/mL. The “AUC (0–36)” value in data set [1] (n = 6) is 48.62 ± 19.41 ng·h/mL. Besides, the “AUC (0–∞)” value in data set [1] (n = 6) is 57.19 ± 30.25 ng·h/mL. In data set [1] (n = 6), this compound came in with a Cmax of 13.33 ± 4.61 ng/mL. Besides, in data set [1] (n = 6), the “MRT (0–36)” value came out at 11.02 ± 5.63 h. Besides, the “MRT (0–∞)” value in data set [1] (n = 6) was 19.29 ± 16.60 h. For the same compound, the Tmax is 0.46 ± 0.29 h in data set [1] (n = 6) and ≤ 1 h in data set [1] (n = 6, listed as specnuezhenide). This compound also displayed a t1/2 in data set [1] (n = 6) of 20.27 ± 25.00 h. Moreover, the “Stability in rat plasma, Autosampler” value was 1.1 ± 0.1 ng/mL in data set [2] (setting [3]), 9.8 ± 0.6 ng/mL in data set [2] (setting [7]) and 198.2 ± 2.6 ng/mL in data set [2] (setting [11]). The “Stability in rat plasma, Long term” value in data set [2] (setting [4]) turned out to be 1.0 ± 0.1 ng/mL; in data set [2] (setting [8]), 10.3 ± 0.6 ng/mL; in data set [2] (setting [12]), 225.6 ± 9.0 ng/mL. Moreover, the “Stability … (4 h, 25 °C), Measured” value in data set [2] (setting [5]) worked out at 1.0 ± 0.1 ng/mL; in data set [2] (setting [9]), 10.7 ± 0.2 ng/mL; in data set [2] (setting [13]) it was 212.7 ± 8.4 ng/mL. The figures for the “Stability in rat plasma, Three freeze/thaw cycles, Measured” value in data set [2] (setting [6]), in data set [2] (setting [10]) and in data set [2] (setting [14]) were 1.0 ± 0.0 ng/mL, 11.5 ± 0.6 ng/mL and 219.0 ± 8.4 ng/mL, respectively.

The record behind these values is article PMC8491704, “Pharmacokinetic study of Tangwang Mingmu granule for the management of diabetic retinopathy based on network pharmacology” (Pharmaceutical Biology, 2021).
